# Laboratory results reported in patent US20250120961A1, “P53 MODULATORS” (Nested Therapeutics, Inc., priority 2023, published 2025).
# Biological target: His-tagged p53-Y220C DNA binding domain (Homo sapiens, UniProt P04637, Y220C)
# Assay: Biochemical p53-Y220C and DNA binding assay (HTRF)
# Settings: bound printed in the heading for the reference compound; read-out: HTRF IP
# Method in brief: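 DBD (aa 94-312, 100 nM) mixed with compound and biotinylated consensus dsDNA (200 nM) in DPBS/20 mM NaCl/0.5% BSA, overnight at 4 °C, then 60 min at 27-29 °C; anti-His Tb/streptavidin-d2 HTRF read. Activation normalized to reference compound (500%) and DMSO (0%); 10-point curve, inflection point reported.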
row,Structure (SMILES),EC50 [µM]
1,"CN1CC[C@@H](Nc2cccc3c2cc(-c2noc(CNC(=O)c4cnn(C(C)(C)C)c4)n2)n3CC(F)(F)F)[C@@H](F)C1 [Reference Compound 1, reference compound]",< 0.1

# Same assay, conditions: inflection point of 10 points dose titration, 4 parameter curve fit; p53-Y220C DBD 100 nM, biotinylated dsDNA 200 nM, 27 to 29° C.; read-out: HTRF IP
row,Structure (SMILES),EC50 [µM]
1,"Cc1nnc(CO/N=C/c2sc3c(N[C@@H]4CNC[C@@H]4F)cccc3c2CC(F)(F)F)o1 [Example 3-6, (E)-7-(((3R,4S)-4-fluoropyrrolidin-3-yl)amino)-3-(2,2,2-trifluoroethyl)benzo[b]thiophene-2-carbaldehyde O-((5-methyl-1,3,4-oxadiazol-2-yl)methyl) oxime]",0.1 to 1
2,"Cc1cc(CO/N=C/c2sc3c(N[C@@H]4CNC[C@@H]4F)cccc3c2CC(F)(F)F)no1 [Example 3-7, (E)-7-(((3R,4S)-4-fluoropyrrolidin-3-yl)amino)-3-(2,2,2-trifluoroethyl)benzo[b]thiophene-2-carbaldehyde O-((5-methylisoxazol-3-yl)methyl) oxime]",0.1 to 1
3,"O=C1CC(CO/N=C/c2sc3c(N[C@@H]4CNC[C@@H]4F)cccc3c2CC(F)(F)F)CN1 (stereo partly drawn) [Example 3-8, (E)-7-(((3R,4S)-4-fluoropyrrolidin-3-yl)amino)-3-(2,2,2-trifluoroethyl)benzo[b]thiophene-2-carbaldehyde O-((5-oxopyrrolidin-3-yl)methyl) oxime]",0.1 to 1
4,"CS(=O)(=O)NC1CCC(=Cc2sc3c(N[C@@H]4CCNC[C@@H]4F)cccc3c2CC(F)(F)F)CC1 (stereo partly drawn) [Example 4-1, N-(4-((7-(((3S,4R)-3-fluoropiperidin-4-yl)amino)-3-(2,2,2-trifluoroethyl)benzo[b]thiophen-2-yl)methylene)cyclohexyl)methanesulfonamide]",> 1
5,"CC(=O)N1CCC(=Cc2sc3c(N[C@@H]4CCNC[C@@H]4F)cccc3c2CC(F)(F)F)CC1 [Example 4-2, 1-(4-((7-(((3S,4R)-3-fluoropiperidin-4-yl)amino)-3-(2,2,2-trifluoroethyl)benzo[b]thiophen-2-yl)methylene)piperidin-1-yl)ethan-1-one]",> 1
6,"OC(/C=C/c1sc2c(N[C@@H]3CNC[C@@H]3F)cccc2c1CC(F)(F)F)c1ccccn1 (stereo partly drawn) [Example 5-1, (E)-3-(7-(((3R,4S)-4-fluoropyrrolidin-3-yl)amino)-3-(2,2,2-trifluoroethyl)benzo[b]thiophen-2-yl)-1-(pyridin-2-yl)prop-2-en-1-ol]",> 1
7,"CN1CC[C@@H](Nc2cccc3c(CC(F)(F)F)c(/C=C/C(O)c4ccccn4)sc23)[C@@H](F)C1 (stereo partly drawn) [Example 5-2, (E)-3-(7-(((3S,4R)-3-fluoro-1-methylpiperidin-4-yl)amino)-3-(2,2,2-trifluoroethyl)benzo[b]thiophen-2-yl)-1-(pyridin-2-yl)prop-2-en-1-ol]",> 1
8,"OC(/C=C/c1sc2c(N[C@@H]3CNC[C@@H]3F)cccc2c1CC(F)(F)F)c1cc(Cl)n[nH]1 (stereo partly drawn) [Example 5-3, (E)-1-(3-chloro-1H-pyrazol-5-yl)-3-(7-(((3R,4S)-4-fluoropyrrolidin-3-yl)amino)-3-(2,2,2-trifluoroethyl)benzo[b]thiophen-2-yl)prop-2-en-1-ol]",0.1 to 1
9,"CN1CC[C@@H](Nc2cccc3c(CC(F)(F)F)c(/C=C/C(O)c4cccnc4)sc23)[C@@H](F)C1 (stereo partly drawn) [Example 5-4, (E)-3-(7-(((3S,4R)-3-fluoro-1-methylpiperidin-4-yl)amino)-3-(2,2,2-trifluoroethyl)benzo[b]thiophen-2-yl)-1-(pyridin-3-yl)prop-2-en-1-ol]",0.1 to 1
10,CN1CC[C@@H](Nc2cccc3c(CC(F)(F)F)c(/C=C/C(O)c4cnn(C)c4)sc23)[C@@H](F)C1 (some centres unmarked) [Example 5-5],0.1 to 1
11,"CN1CC[C@@H](Nc2cccc3c(CC(F)(F)F)c(/C=C/C(O)c4cnn5ccccc45)sc23)[C@@H](F)C1 (stereo partly drawn) [Example 5-6, (E)-3-(7-(((3S,4R)-3-fluoro-1-methylpiperidin-4-yl)amino)-3-(2,2,2-trifluoroethyl)benzo[b]thiophen-2-yl)-1-(pyrazolo[1,5-a]pyridin-3-yl)prop-2-en-1-ol]",0.1 to 1
12,"CN1CC[C@@H](Nc2cccc3c(CC(F)(F)F)c(/C=C/C(O)c4cnn(CC5CC5)c4)sc23)[C@@H](F)C1 (stereo partly drawn) [Example 5-7, (E)-1-(1-(cyclopropylmethyl)-1H-pyrazol-4-yl)-3-(7-(((3S,4R)-3-fluoro-1-methylpiperidin-4-yl)amino)-3-(2,2,2-trifluoroethyl)benzo[b]thiophen-2-yl)prop-2-en-1-ol]",0.1 to 1
13,"CN1CC[C@@H](Nc2cccc3c(CC(F)(F)F)c(/C=C/C(O)c4cn[nH]c4)sc23)[C@@H](F)C1 (stereo partly drawn) [Example 5-8, (E)-3-(7-(((3S,4R)-3-fluoro-1-methylpiperidin-4-yl)amino)-3-(2,2,2-trifluoroethyl)benzo[b]thiophen-2-yl)-1-(1H-pyrazol-4-yl)prop-2-en-1-ol]",0.1 to 1
14,"CN1CC[C@@H](Nc2cccc3c(CC(F)(F)F)c(/C=C/C(O)c4ccncc4)sc23)[C@@H](F)C1 (stereo partly drawn) [Example 5-9, (E)-3-(7-(((3S,4R)-3-fluoro-1-methylpiperidin-4-yl)amino)-3-(2,2,2-trifluoroethyl)benzo[b]thiophen-2-yl)-1-(pyridin-4-yl)prop-2-en-1-ol]",0.1 to 1
15,"O=c1cccc(C(O)/C=C/c2sc3c(N[C@@H]4CNC[C@@H]4F)cccc3c2CC(F)(F)F)[nH]1 (stereo partly drawn) [Example 5-10, 6-((E)-3-(7-(((3R,4S)-4-fluoropyrrolidin-3-yl)amino)-3-(2,2,2-trifluoroethyl)benzo[b]thiophen-2-yl)-1-hydroxyallyl)pyridin-2(1H)-one]",0.1 to 1
16,"CN1CC[C@@H](Nc2cccc3c(CC(F)(F)F)c(/C=C/CNC(=O)C4CC4)sc23)[C@@H](F)C1 [Example 6-1, N-((E)-3-(7-(((3S,4R)-3-fluoro-1-methylpiperidin-4-yl)amino)-3-(2,2,2-trifluoroethyl)benzo[b]thiophen-2-yl)allyl)cyclopropanecarboxamide]",0.1 to 1
17,"CN1CC[C@@H](Nc2cccc3c(CC(F)(F)F)c(/C=C/CNC(=O)c4cnn(C)c4)sc23)[C@@H](F)C1 [Example 6-2, N-((E)-3-(7-(((3S,4R)-3-fluoro-1-methylpiperidin-4-yl)amino)-3-(2,2,2-trifluoroethyl)benzo[b]thiophen-2-yl)allyl)-1-methyl-1H-pyrazole-4-carboxamide]",0.1 to 1
18,"CN1CC[C@@H](Nc2cccc3c(CC(F)(F)F)c(/C=C/CNS(C)(=O)=O)sc23)[C@@H](F)C1 [Example 6-3, N-((E)-3-(7-(((3S,4R)-3-fluoro-1-methylpiperidin-4-yl)amino)-3-(2,2,2-trifluoroethyl)benzo[b]thiophen-2-yl)allyl)methanesulfonamide]",0.1 to 1
19,"COC(=O)NC/C=C/c1sc2c(N[C@@H]3CCN(C)C[C@@H]3F)cccc2c1CC(F)(F)F [Example 6-4, methyl ((E)-3-(7-(((3S,4R)-3-fluoro-1-methylpiperidin-4 yl)amino)-3-(2,2,2-trifluoroethyl)benzo[b]thiophen-2-yl)allyl)carbamate]",0.1 to 1
20,"CN1CC[C@@H](Nc2cccc3c(CC(F)(F)F)c(/C=C/CNc4cccnc4)sc23)[C@@H](F)C1 [Example 7-1, N-((E)-3-(7-(((3S,4R)-3-fluoro-1-methylpiperidin-4-yl)amino)-3-(2,2,2-trifluoroethyl)benzo[b]thiophen-2-yl)allyl)pyridin-3-amine]",0.1 to 1
21,"COc1cc(S(C)(=O)=O)ccc1NC/C=C/c1sc2c(N[C@@H]3CCN(C)C[C@@H]3F)cccc2c1CC(F)(F)F [Example 7-2, (3S,4R)-3-fluoro-N-(2-((E)-3-((2-methoxy-4-(methylsulfonyl)phenyl)amino)prop-1-en-1-yl)-3-(2,2,2-trifluoroethyl)benzo[b]thiophen-7-yl)-1-methylpiperidin-4-amine]",< 0.1
22,"CN1CC[C@@H](Nc2cccc3c2cc(-c2noc(CNC(=O)c4cnn(C(C)(C)C)c4)n2)n3CC(F)(F)F)[C@@H](F)C1 [Reference Compound 1, reference compound]",< 0.1
